# Biological target: Human TRPA1 (Homo sapiens, UniProt O75762)
# Assay: Assay 1: In vitro cellular testing of TRPA1 modulation (CHO-TREx, Fluo-3 calcium fluorescence, AITC agonist)
# Type: cell-based
# Parameters: expressed in transfected cells; host or cells: CHO-TREx cells (Invitrogen), vector pcDNA4/TO
# Details: CHO-TREx cells expressing human TRPA1; Fluo-3 fluorescence (FLIPR/Tetra); agonist 15 μM allyl isothiocyanate (AITC); 30 minute antagonist incubation
# Procedure, shortened: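 Antagonist potency is the 50% reduction of the AITC (15 μM) calcium response, Hill-fitted against no-antagonist and 10 μM ruthenium red controls. Fluo-3-loaded (4 μM) CHO-TREx cells with tetracycline-inducible human TRPA1 got compound in HEPES saline pH 7.4 for 30 min, usually from 10 μM in three-fold dilutions.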
# Chain of Human TRPA1 (O75762 whole entry): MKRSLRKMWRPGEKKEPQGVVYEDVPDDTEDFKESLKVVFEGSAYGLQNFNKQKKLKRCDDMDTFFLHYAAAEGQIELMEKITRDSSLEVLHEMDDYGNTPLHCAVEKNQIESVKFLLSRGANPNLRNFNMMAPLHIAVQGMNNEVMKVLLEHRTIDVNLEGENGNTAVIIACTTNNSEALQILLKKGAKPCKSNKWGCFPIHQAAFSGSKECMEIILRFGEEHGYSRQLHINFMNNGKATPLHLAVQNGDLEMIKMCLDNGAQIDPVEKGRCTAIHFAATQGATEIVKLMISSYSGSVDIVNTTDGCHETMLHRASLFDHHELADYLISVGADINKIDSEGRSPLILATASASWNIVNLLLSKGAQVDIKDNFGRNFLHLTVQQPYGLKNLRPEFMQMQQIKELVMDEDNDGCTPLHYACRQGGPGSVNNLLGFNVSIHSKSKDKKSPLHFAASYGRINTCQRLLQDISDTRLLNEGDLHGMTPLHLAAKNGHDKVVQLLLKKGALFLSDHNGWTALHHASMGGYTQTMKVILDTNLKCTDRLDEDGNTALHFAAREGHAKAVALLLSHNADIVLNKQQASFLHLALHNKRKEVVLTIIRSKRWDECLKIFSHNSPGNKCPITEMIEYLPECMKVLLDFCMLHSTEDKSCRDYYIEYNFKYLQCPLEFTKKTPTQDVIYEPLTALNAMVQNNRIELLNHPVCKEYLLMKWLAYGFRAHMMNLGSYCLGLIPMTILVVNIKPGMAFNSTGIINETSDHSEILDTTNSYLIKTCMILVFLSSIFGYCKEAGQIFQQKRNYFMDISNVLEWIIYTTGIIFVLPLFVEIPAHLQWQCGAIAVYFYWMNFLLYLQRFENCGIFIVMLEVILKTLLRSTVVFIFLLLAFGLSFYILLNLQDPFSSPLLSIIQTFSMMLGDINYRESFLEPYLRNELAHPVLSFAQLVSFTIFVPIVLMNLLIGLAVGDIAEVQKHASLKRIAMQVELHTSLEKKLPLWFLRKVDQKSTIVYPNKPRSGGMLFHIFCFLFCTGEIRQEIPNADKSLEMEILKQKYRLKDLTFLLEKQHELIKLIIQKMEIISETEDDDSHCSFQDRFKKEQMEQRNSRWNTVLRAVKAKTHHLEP
row,IC50,SMILES
1,0.38 µM,"CNc1cc(CNC(=O)[C@@H]2C=CCN2S(=O)(=O)c2ccc(Cl)s2)cc(-c2ccc(C(F)(F)F)cc2)n1 [Example 379, (2S)-1-[(5-Chlorothiophen-2-yl)sulfonyl]-N-({2-(methylamino)-6-[4-(trifluoromethyl)phenyl]pyridin-4-yl}methyl)-2,5-dihydro-1H-pyrrole-2-carboxamide]"
2,0.523 µM,"O=C(NCc1cc(NCc2ccccn2)nc(-c2ccc(C(F)(F)F)cc2)c1)[C@@H]1C=CCN1S(=O)(=O)c1ccc(F)cc1 [Example 380, (2S)-1-[(4-Fluorophenyl)sulfonyl]-N-({2-[(pyridin-2-ylmethyl)amino]-6-[4-(trifluoromethyl)phenyl]pyridin-4-yl}methyl)-2,5-dihydro-1H-pyrrole-2-carboxamide]"
3,0.729 µM,"O=C(NCc1cc(-c2ccc(C(F)(F)F)cc2)nc(N2CCN(Cc3ccncc3)CC2)c1)[C@@H]1CC(F)(F)CN1S(=O)(=O)c1ccc(Cl)s1 [Example 381, 1-[(5-Chlorothiophen-2-yl)sulfonyl]-4,4-difluoro-N-({2-[4-(pyridin-4-ylmethyl)piperazin-1-yl]-6-[4-(trifluoromethyl)phenyl]pyridin-4-yl}methyl)-L-prolinamide]"
4,5.09 µM,"O=C(NCc1cc(NCc2ccccn2)nc(-c2ccc(C(F)(F)F)cc2)c1)[C@@H]1CC(F)(F)CN1S(=O)(=O)c1ccc(Cl)s1 [Example 382, 1-[(5-Chlorothiophen-2-yl)sulfonyl]-4,4-difluoro-N-({2-[(pyridin-2-ylmethyl)amino]-6-[4-(trifluoromethyl)phenyl]pyridin-4-yl}methyl)-L-prolinamide]"
5,0.488 µM,"CC(C)CN1CCN(c2cc(CNC(=O)[C@@H]3CC(F)(F)CN3S(=O)(=O)c3ccc(Cl)s3)cc(-c3ccc(C(F)(F)F)cc3)n2)CC1 [Example 383, 1-[(5-Chlorothiophen-2-yl)sulfonyl]-4,4-difluoro-N-({2-[4-(2-methylpropyl)piperazin-1-yl]-6-[4-(trifluoromethyl)phenyl]pyridin-4-yl}methyl)-L-prolinamide]"
6,2.22 µM,"CNc1cc(CNC(=O)[C@@H]2CC(F)(F)CN2S(=O)(=O)c2ccc(Cl)s2)cc(-c2ccc(C(F)(F)F)cc2)n1 [Example 384, 1-[(5-Chlorothiophen-2-yl)sulfonyl]-4,4-difluoro-N-({2-(methylamino)-6-[4-(trifluoromethyl)phenyl]pyridin-4-yl}methyl)-L-prolinamide]"
7,0.978 µM,"O=C(NCc1cc(NCc2ccncc2)nc(-c2ccc(C(F)(F)F)cc2)c1)[C@@H]1CCCN1S(=O)(=O)c1ccc(F)cc1 [Example 385, 1-[(4-Fluorophenyl)sulfonyl]-N-({2-[(pyridin-4-ylmethyl)amino]-6-[4-(trifluoromethyl)phenyl]pyridin-4-yl}methyl)-L-prolinamide]"
8,0.311 µM,"CC(C)CN1CCN(c2cc(CNC(=O)[C@@H]3CC(F)(F)CN3S(=O)(=O)c3ccc(F)cc3)cc(-c3ccc(C(F)(F)F)cc3)n2)CC1 [Example 386, 4,4-Difluoro-1-[(4-fluorophenyl)sulfonyl]-N-({2-[4-(2-methylpropyl)piperazin-1-yl]-6-[4-(trifluoromethyl)phenyl]pyridin-4-yl}methyl)-L-prolinamide]"
9,3.05 µM,"O=C(NCc1cc(-c2ccc(C(F)(F)F)cc2)nc(N2CCN(Cc3ccccn3)CC2)c1)[C@@H]1CC(F)(F)CN1S(=O)(=O)c1ccc(F)cc1 [Example 387, 4,4-Difluoro-1-[(4-fluorophenyl)sulfonyl]-N-({2-[4-(pyridin-2-ylmethyl)piperazin-1-yl]-6-[4-(trifluoromethyl)phenyl]pyridin-4-yl}methyl)-L-prolinamide]"
10,3.52 µM,"O=C(NCc1cc(-c2ccc(C(F)(F)F)cc2)nc(N2CCN(Cc3ccccc3)CC2)c1)[C@@H]1CC(F)(F)CN1S(=O)(=O)c1ccc(F)cc1 [Example 388, N-({2-(4-Benzylpiperazin-1-yl)-6-[4-(trifluoromethyl)phenyl]pyridin-4-yl}methyl)-4,4-difluoro-1-[(4-fluorophenyl)sulfonyl]-L-prolinamide]"
11,0.095 µM,"CC(C)CN1CCN(c2cc(CNC(=O)[C@@H]3C=CCN3S(=O)(=O)c3ccc(Cl)s3)cc(-c3ccc(C(F)(F)F)cc3)n2)CC1 [Example 389, (2S)-1-[(5-Chlorothiophen-2-yl)sulfonyl]-N-({2-[4-(2-methylpropyl)piperazin-1-yl]-6-[4-(trifluoromethyl)phenyl]pyridin-4-yl}methyl)-2,5-dihydro-1H-pyrrole-2-carboxamide]"
12,0.382 µM,"CC(C)CN1CCN(c2cc(CNC(=O)[C@@H]3C=CCN3S(=O)(=O)c3ccc(F)cc3)cc(-c3ccc(C(F)(F)F)cc3)n2)CC1 [Example 390, (2S)-1-[(4-Fluorophenyl)sulfonyl]-N-({2-[4-(2-methylpropyl)piperazin-1-yl]-6-[4-(trifluoromethyl)phenyl]pyridin-4-yl}methyl)-2,5-dihydro-1H-pyrrole-2-carboxamide]"
13,0.797 µM,"O=C(NCc1cc(NCc2ccncc2)nc(-c2ccc(C(F)(F)F)cc2)c1)[C@@H]1C=CCN1S(=O)(=O)c1ccc(Cl)s1 [Example 391, (2S)-1-[(5-Chlorothiophen-2-yl)sulfonyl]-N-({2-[(pyridin-4-ylmethyl)amino]-6-[4-(trifluoromethyl)phenyl]pyridin-4-yl}methyl)-2,5-dihydro-1H-pyrrole-2-carboxamide]"
14,0.414 µM,"O=C(NCc1cc(NCc2ccccn2)nc(-c2ccc(C(F)(F)F)cc2)c1)[C@@H]1CCCN1S(=O)(=O)c1ccc(F)cc1 [Example 392, 1-[(4-Fluorophenyl)sulfonyl]-N-({2-[(pyridin-2-ylmethyl)amino]-6-[4-(trifluoromethyl)phenyl]pyridin-4-yl}methyl)-L-prolinamide]"
15,0.461 µM,"CN(C)c1cc(CNC(=O)[C@@H]2CC(F)(F)CN2S(=O)(=O)c2ccc(F)cc2)cc(-c2ccc(C(F)(F)F)cc2)n1 [Example 393, N-({2-(Dimethylamino)-6-[4-(trifluoromethyl)phenyl]pyridin-4-yl}methyl)-4,4-difluoro-1-[(4-fluorophenyl)sulfonyl]-L-prolinamide]"
16,0.598 µM,"O=C(NCc1cc(NCc2ccccc2)nc(-c2ccc(C(F)(F)F)cc2)c1)[C@@H]1CC(F)(F)CN1S(=O)(=O)c1ccc(F)cc1 [Example 394, N-({2-(Benzylamino)-6-[4-(trifluoromethyl)phenyl]pyridin-4-yl}methyl)-4,4-difluoro-1-[(4-fluorophenyl)sulfonyl]-L-prolinamide]"
17,2.98 µM,"O=C(NCc1cc(NCc2cccnc2)nc(-c2ccc(C(F)(F)F)cc2)c1)[C@@H]1CCCN1S(=O)(=O)c1ccc(F)cc1 [Example 395, 1-[(4-Fluorophenyl)sulfonyl]-N-({2-[(pyridin-3-ylmethyl)amino]-6-[4-(trifluoromethyl)phenyl]pyridin-4-yl}methyl)-L-prolinamide]"
18,1.79 µM,"CC1CCCN1c1cc(CNC(=O)[C@@H]2CC(F)(F)CN2S(=O)(=O)c2ccc(F)cc2)cc(-c2ccc(C(F)(F)F)cc2)n1 (stereo partly drawn) [Example 396, 4,4-Difluoro-1-[(4-fluorophenyl)sulfonyl]-N-({2-(2-methylpyrrolidin-1-yl)-6-[4-(trifluoromethyl)phenyl]pyridin-4-yl}methyl)-L-prolinamide]"
19,2.95 µM,"CC1CCCN1c1cc(CNC(=O)[C@@H]2CC(F)(F)CN2S(=O)(=O)c2ccc(Cl)s2)cc(-c2ccc(C(F)(F)F)cc2)n1 (stereo partly drawn) [Example 397, 1-[(5-Chlorothiophen-2-yl)sulfonyl]-4,4-difluoro-N-({2-(2-methylpyrrolidin-1-yl)-6-[4-(trifluoromethyl)phenyl]pyridin-4-yl}methyl)-L-prolinamide]"
20,7.09 µM,"CC(Nc1cc(CNC(=O)[C@@H]2CC(F)(F)CN2S(=O)(=O)c2ccc(F)cc2)cc(-c2ccc(C(F)(F)F)cc2)n1)c1cccnc1 (stereo partly drawn) [Example 398, 4,4-Difluoro-1-[(4-fluorophenyl)sulfonyl]-N-({2-[(1-pyridin-3-ylethyl)amino]-6-[4-(trifluoromethyl)phenyl]pyridin-4-yl}methyl)-L-prolinamide]"
21,2.61 µM,"CC(Nc1cc(CNC(=O)[C@@H]2CC(F)(F)CN2S(=O)(=O)c2ccc(Cl)s2)cc(-c2ccc(C(F)(F)F)cc2)n1)c1cccnc1 (stereo partly drawn) [Example 399, 1-[(5-Chlorothiophen-2-yl)sulfonyl]-4,4-difluoro-N-({2-[(1-pyridin-3-ylethyl)amino]-6-[4-(trifluoromethyl)phenyl]pyridin-4-yl}methyl)-L-prolinamide]"
22,1.83 µM,"CC(Nc1cc(CNC(=O)[C@@H]2CC(F)(F)CN2S(=O)(=O)c2ccc(Cl)s2)cc(-c2ccc(C(F)(F)F)cc2)n1)c1ccncc1 (stereo partly drawn) [Example 400, 1-[(5-Chlorothiophen-2-yl)sulfonyl]-4,4-difluoro-N-({2-[(1-pyridin-4-ylethyl)amino]-6-[4-(trifluoromethyl)phenyl]pyridin-4-yl}methyl)-L-prolinamide]"
23,2.52 µM,"CC(Nc1cc(CNC(=O)[C@@H]2CC(F)(F)CN2S(=O)(=O)c2ccc(F)cc2)cc(-c2ccc(C(F)(F)F)cc2)n1)c1ccncc1 (stereo partly drawn) [Example 401, 4,4-Difluoro-1-[(4-fluorophenyl)sulfonyl]-N-({2-[(1-pyridin-4-ylethyl)amino]-6-[4-(trifluoromethyl)phenyl]pyridin-4-yl}methyl)-L-prolinamide]"
24,0.594 µM,"CC(Nc1cc(CNC(=O)[C@@H]2CCCN2S(=O)(=O)c2ccc(F)cc2)cc(-c2ccc(C(F)(F)F)cc2)n1)c1ccncc1 (stereo partly drawn) [Example 402, 1-[(4-Fluorophenyl)sulfonyl]-N-({2-[(1-pyridin-4-ylethyl)amino]-6-[4-(trifluoromethyl)phenyl]pyridin-4-yl}methyl)-L-prolinamide]"
25,0.466 µM,"CC(Nc1cc(CNC(=O)[C@@H]2CCCN2S(=O)(=O)c2ccc(Cl)s2)cc(-c2ccc(C(F)(F)F)cc2)n1)c1ccncc1 (stereo partly drawn) [Example 403, 1-[(5-Chlorothiophen-2-yl)sulfonyl]-N-({2-[(1-pyridin-4-ylethyl)amino]-6-[4-(trifluoromethyl)phenyl]pyridin-4-yl}methyl)-L-prolinamide]"
